{"source": "patent US20080096969A1", "about": "“N alpha-(Menthanecarbonyl)amino acid amides and use thereof as physiological cooling active ingredients” (SYMRISE GMBH & CO. KG, priority 2006, published 2008)", "key": {"[1]": {"test": "Organoleptic test of cooling action in confectioner's fondant by a panel of experts", "assay_type": "in vivo", "settings": "0.05 wt. % relative to the overall preparation, scale from 1 (no cooling action) to 9 (extremely strong cooling action)", "procedure": "The compounds were tested for their organoleptic properties, in particular their cooling action. To this end, they were dissolved, in each case in a specific final concentration, in a mass prepared from sucrose (saccharose) and water (confectioner's fondant, supplier Nordzucker A G, Nordstemmen) and evaluated by a panel of experts. Sensory impressions were rated and the cooling action was assessed on a scale from 1 (no cooling action) to 9 (extremely strong cooling action)."}, "[2]": {"settings": "study of approx. 1200 compounds; cited from earlier work"}, "[3]": {"settings": "forms the free acid N-(L-menthanecarbonyl)glycine; cited from earlier work"}}, "data": [{"smiles": "CC(C)CNC(=O)CNC(=O)[C@@H]1C[C@H](C)CC[C@H]1C(C)C", "note": "[Example 1, L-N^α-(menthanecarboxyl)glycine-N-isobutylamide]", "values": [{"measurement": "cooling action", "setting": "[1]", "result": 5}]}, {"smiles": "CC1CCC(C(C)C)C(C(=O)NCC(=O)O)C1", "note": "[N-(L-menthanecarbonyl)glycine]", "values": [{"measurement": "cooling action (literature)", "setting": "[2]", "result": "very weak cooling action"}]}, {"smiles": "CCNC(=O)C1CC(C)CCC1C(C)C", "note": "[WS3, L-menthane carboxylic acid N-ethylamide]", "values": [{"measurement": "cooling action (literature)", "setting": "[2]", "result": "most strongly cooling active ingredients"}]}, {"smiles": "CCOC(=O)CNC(=O)C1CC(C)CCC1C(C)C", "note": "[WS5, N^α-(L-menthanecarbonyl)glycine ethyl ester]", "values": [{"measurement": "susceptibility to hydrolysis", "setting": "[3]", "result": "susceptible to hydrolysis"}, {"measurement": "cooling action (literature)", "setting": "[2]", "result": "most strongly cooling active ingredients"}]}]}
